From patent US20240350481A1, “USE OF N-MYRISTOYL TRANSFERASE (NMT) INHIBITORS IN THE TREATMENT OF CANCER, AUTOIMMUNE DISORDERS, AND INFLAMMATORY DISORDERS” (PACYLEX PHARMACEUTICALS INC., priority 2020, published 2024)

What was measured:
[1] = system: peripheral blood mononuclear cells (PBMCs); assay: PBMC viability assay; assay type: cell-based, human; details: 96 hr
Description: 2 healthy human research volunteers were recruited for PBMC and lymphocytes isolation from a 20 ml blood collection (patient #1: no diagnosis, no treatment; patient #2: no diagnosis, no treatment). Study protocol was approved by the Health Research Ethics Board of Alberta Cancer Committee (Study title: Evaluations of Fatty AcylTransferases (FATs) in fresh blood and blood forming cells; HREBA.CC-17-0624).
Mononuclear cells were isolated from peripheral blood by density gradient centrifugation using Ficoll-Paque (GE Healthcare, PA, USA). Lymphocytes were isolated from whole blood samples using EasySep™ lymphocyte isolation kit (Stemcell Technologies, Vancouver, BC, Canada) as per manufacturer's instructions. PBMC and lymphocytes were cultured in RPMI medium with 10% FBS, 100 U/ml penicillin, 0.1 mg/ml streptomycin. Cells were plated at a concentration of 2×10^6 cells/ml.

[2] = system: hematological cancer cell lines; assay: Viability of hematological cancer cell lines in vitro (assay not given); assay type: cell-based; details: most hematological cancer cell lines in vitro
[3] = system: patient DLBCL3 derived lymphoma xenograft; assay: DLBCL3 patient-derived xenograft, tumor growth; assay type: in vivo, mouse; details: 20 mg/kg subcutaneous daily, 21 days
Description: The dose volume was 10 mL/kg.
TGI (%)=(Vcontrol−Vtreated)/(Vcontrol−Vnitial)*100.
The pleural fluid was collected in cold sterile 20% RPMI 1640 medium and neoplastic cells were isolated with Ficoll-Paque Plus (GE Healthcare) and re-suspended in […] (Life Technologies) with 20% foetal bovine serum (Life Technologies, Carlsbad, CA). […] The cell suspension was injected subcutaneously in the flank of 4-6-week-old NODscid mice. When the tumors reached a maximum of 1000 mm^3, the mice were sacrificed, tumors were harvested, and a necropsy was performed. Xenograft tumors were immediately frozen, fixed in formalin, and stored in 90% foetal bovine serum, and 10% dimethyl sulfoxide or placed in RPMI 1640 medium. This process was repeated to produce subsequent generations of patient-derived xenograft models (P2, P3, P4, . . . ). To evaluate the maintenance of the morphology and main characteristics of the tumor of origin, formalin-fixed, paraffin-embedded tissue sections from patient tumor samples and xenografts of all established patient-derived xenograft models were stained with haematoxylin and eosin. These sections were also immunostained to measure the expression of various markers. A clinical pathologist reviewed all the slides. […]

[4] = Toxicology in DOHH2 xenograft mice; details: for Reticulocyte % / Absolute Basophil cells / Absolute Eosinophil cells / Absolute Monocyte cells / Absolute Neutrophil cells / Absolute Lymphocyte cells / WBC / MPV / RBC / Hemoglobin / RDW % / MCH / MCHC / Hematocrit % / MCV / Platelets / Aspartate Transaminase / Bilirubin / Creatine PhosphoKinase / Creatinine: DOHH2 xenograft; for Absolute Basophil cells / Absolute Eosinophil cells: normal [0-0.2]; for Absolute Monocyte cells: normal [0-0.4]; for Absolute Neutrophil cells: normal [0.1-2.4]; for Absolute Lymphocyte cells: normal [0.9-9.3]; for WBC: normal [1.8-10.7]; for MPV: normal [5-20]; for RBC: normal [6.36-9.42]; for Hemoglobin: normal [11-15.1]; for RDW %: normal [12.4-27]; for MCH: normal [14.1-19.3]; for MCHC: normal [30.2-34.2]; for Hematocrit %: normal [35.1-45.4]; for MCV: normal [45.4-60.3]; for Platelets: normal [592-2972]; for Aspartate Transaminase / Bilirubin / Creatine PhosphoKinase / Creatinine: mean ± SEM, n = 3
Description: Mice were observed daily for clinical signs of toxicity and effects on body weight. After the last dose, three mice/group were euthanized and necropsied. At euthanasia, blood samples were taken for hematology analyses and to measure AST and CK activities and bilirubin and creatinine concentrations. At necropsy, samples of samples of femur, both kidneys, liver, small intestine, and injection site were taken and fixed.
The dose volume was 10 mL/kg. At the end of the two-to three-week dosing period, mice were euthanized and three/group were necropsied. Mice that died or were euthanized early for humane reasons also were necropsied. In life, mice were monitored regularly and weighed daily, and tumors were measured with digital Vernier calipers (Mitutoyo) every other day. Tumor volume was calculated as length (mm)×width (mm)2/2; length and width were the longest and shortest diameters, respectively. At euthanasia, at the end of the dosing period blood samples were taken for hematology analyses and clinical chemistry analyses that included AST and CK activities and bilirubin and creatinine concentrations (plus ALT activity and BUN concentration in the Jackson Laboratory study). At necropsy, samples of femur, both kidneys, liver, small intestine, and injection site were collected and fixed. These were subsequently processed and examined by light microscopy for histopathologic findings. Also at necropsy, the tumors were removed and divided in two. One piece was fixed in 10% neutral buffered formalin for 24 h at room temperature and embedded in paraffin; the other was snap frozen for RNA and protein analysis. Tumor growth inhibition (TGI) for all xenograft experiments was calculated following the formula:

[5] = system: BL2 cells; assay: Click chemistry, total protein myristoylation; assay type: cell-based; details: 1 hr treatment
Description: Protein from the resulting cell lysates were reacted with 100 μM azido-biotin using click chemistry and processed as described in Yap et al.^47 and Perinpanayagam et al.^33

[6] = system: BL2 and IM9 cells; assay: Calcein viability, PCLX-001 vs dasatinib and ibrutinib; assay type: cell-based
Description: Calcein assay consists of measuring the cell viability ratio (live cells/total cells and expressed as % viability). Cells were stained with the Nuclear-ID Blue/Red cell viability reagent (GFP-certified, Enzo Life Sciences) to identify total cells, and dead cells while live cells were stained with Calcein AM (Life Technologies) according to manufacturer's instructions. Cell count was performed using a Cytation 5 Cell Imaging Multi-Mode Reader (Biotek Instruments, Inc.) and analysed by Biotek Gen5 Data Analysis software (version 2.09).

[7] = c2, head missing (per Table 4: PCLX-001 10 mg/kg/day)
[8] = c3, head missing (per Table 4: PCLX-001 20 mg/kg/day)
[9] = c4, head missing (per Table 4: PCLX-001 50 mg/kg/day Interm.)
[10] = c5, head missing (per Table 4: PCLX-001 50 mg/kg/day)

SMILES: Cc1c(N[S+](=O)([O-])c2c(Cl)cc(-c3ccnc(N4CCNCC4)c3)cc2Cl)c(CC(C)C)nn1C [PCLX-001]
- decrease in PBMC survival ([1]; 0.1 μM): ~50%
- concentration endured by the surviving PBMCs [1]: ≤ 10 µM
- IC50 [2]: 50 to 100 nM
- TGI [3]: 66%
- neutrophil and monocyte counts ([4]; 50 mg/kg daily): lower than normal in all three mice
- RBC counts ([4]; 50 mg/kg every other day): lower than normal in all three mice
- femoral bone marrow histopathology ([4]; 50 mg/kg groups): no histopathologic findings
- Reticulocyte % ([4]; PCLX-001 10 mg/kg/day): 8.08 ± 1.58%
- Absolute Basophil cells ([4]; PCLX-001 10 mg/kg/day): 0.01 ± 0 K/ul
- Absolute Eosinophil cells ([4]; PCLX-001 10 mg/kg/day): 0.05 ± 0.02 K/ul
- Absolute Monocyte cells ([4]; PCLX-001 10 mg/kg/day): 0.52 ± 0.06 K/ul
- Absolute Neutrophil cells ([4]; PCLX-001 10 mg/kg/day): 4.89 ± 0.34 K/ul
- Absolute Lymphocyte cells ([4]; PCLX-001 10 mg/kg/day): 0.83 ± ? .19 K/ul
- WBC ([4]; PCLX-001 10 mg/kg/day): 6.3 ± 0.12 K/ul
- MPV ([4]; PCLX-001 10 mg/kg/day): 6.77 ± 0.18 fL
- RBC ([4]; PCLX-001 10 mg/kg/day): 9.45 ± 0.1 M/ul
- Hemoglobin ([4]; PCLX-001 10 mg/kg/day): 14.13 ± 0.18 g/dL
- RDW % ([4]; PCLX-001 10 mg/kg/day): 25.97 ± 0.46%
- MCH ([4]; PCLX-001 10 mg/kg/day): 14.93 ± 0.03 pg
- MCHC ([4]; PCLX-001 10 mg/kg/day): 32.73 ± 0.07 g/dL
- Hematocrit % ([4]; PCLX-001 10 mg/kg/day): 43.2 ± 0.61%
- MCV ([4]; PCLX-001 10 mg/kg/day): 45.7 ± 0.2 fL
- Platelets ([4]; PCLX-001 10 mg/kg/day): 1490 ± 91.31 K/uL
- Reticulocyte % ([4]; PCLX-001 20 mg/kg/day): 7.21 ± 0.49%
- Absolute Basophil cells ([4]; PCLX-001 20 mg/kg/day): 0.01 ± 0 K/ul
- Absolute Eosinophil cells ([4]; PCLX-001 20 mg/kg/day): 0.02 ± 0.01 K/ul
- Absolute Neutrophil cells ([4]; PCLX-001 20 mg/kg/day): 3.94 ± 0.94 K/ul
- Absolute Lymphocyte cells ([4]; PCLX-001 20 mg/kg/day): 0.84 ± ? .15 K/ul
- WBC ([4]; PCLX-001 20 mg/kg/day): 5.41 ± 1.05 K/ul
- MPV ([4]; PCLX-001 20 mg/kg/day): 7.63 ± 0.23 fL
- RBC ([4]; PCLX-001 20 mg/kg/day): 9.03 ± 0.32 M/ul
- Hemoglobin ([4]; PCLX-001 20 mg/kg/day): 13.97 ± 0.44 g/dL
- RDW % ([4]; PCLX-001 20 mg/kg/day): 25.13 ± 0.65%
- MCH ([4]; PCLX-001 20 mg/kg/day): 15.43 ± 0.3 pg
- MCHC ([4]; PCLX-001 20 mg/kg/day): 33.03 ± 0.22 g/dL
- Hematocrit % ([4]; PCLX-001 20 mg/kg/day): 42.33 ± 1.48%
- MCV ([4]; PCLX-001 20 mg/kg/day): 46.9 ± 0.65 fL
- Platelets ([4]; PCLX-001 20 mg/kg/day): 1234.7 ± 38.49 K/uL
- Reticulocyte % ([4]; PCLX-001 50 mg/kg/day): 6.7 ± 0.3%
- Reticulocyte % ([4]; PCLX-001 50 mg/kg/day Interm.): 13.28 ± 6.74%
- Absolute Basophil cells ([4]; PCLX-001 50 mg/kg/day Interm.): 0 ± 0 K/ul
- Absolute Eosinophil cells ([4]; PCLX-001 50 mg/kg/day Interm.): 0.05 ± 0.03 K/ul
- Absolute Monocyte cells ([4]; PCLX-001 50 mg/kg/day Interm.): 0.91 ± 0.14 K/ul
- Absolute Lymphocyte cells ([4]; PCLX-001 50 mg/kg/day Interm.): 1.51 ± 0.47 K/ul
- WBC ([4]; PCLX-001 50 mg/kg/day Interm.): 5.94 ± 1.19 K/ul
- MPV ([4]; PCLX-001 50 mg/kg/day Interm.): 7.17 ± 0.09 fL
- RBC ([4]; PCLX-001 50 mg/kg/day Interm.): 8.07 ± 0.12 M/ul
- Hemoglobin ([4]; PCLX-001 50 mg/kg/day Interm.): 12.6 ± 0.15 g/dL
- RDW % ([4]; PCLX-001 50 mg/kg/day Interm.): 27.2 ± 1.82%
- MCH ([4]; PCLX-001 50 mg/kg/day Interm.): 15.63 ± 0.12 pg
- MCHC ([4]; PCLX-001 50 mg/kg/day Interm.): 31.90 ± 1.01 g/dL
- Hematocrit % ([4]; PCLX-001 50 mg/kg/day Interm.): 39.53 ± 0.84%
- MCV ([4]; PCLX-001 50 mg/kg/day Interm.): 49.07 ± 1.72 fL
- Platelets ([4]; PCLX-001 50 mg/kg/day Interm.): 1673.7 ± 309.81 K/uL
- Absolute Basophil cells ([4]; PCLX-001 50 mg/kg/day): 0 ± 0 K/ul
- Absolute Eosinophil cells ([4]; PCLX-001 50 mg/kg/day): 0.01 ± 0.01 K/ul
- Absolute Monocyte cells ([4]; PCLX-001 50 mg/kg/day): 0.19 ± 0.06 K/ul
- Absolute Neutrophil cells ([4]; PCLX-001 50 mg/kg/day): 1.45 ± 0.22 K/ul
- Absolute Lymphocyte cells ([4]; PCLX-001 50 mg/kg/day): 0.23 ± 0.06 K/ul
- WBC ([4]; PCLX-001 50 mg/kg/day): 1.89 ± 0.31 K/ul
- MPV ([4]; PCLX-001 50 mg/kg/day): 7 ± 0.3 fL
- RBC ([4]; PCLX-001 50 mg/kg/day): 9.3 ± 0.17 M/ul
- Hemoglobin ([4]; PCLX-001 50 mg/kg/day): 14.77 ± 0.23 g/dL
- RDW % ([4]; PCLX-001 50 mg/kg/day): 25.8 ± 0.3%
- MCH ([4]; PCLX-001 50 mg/kg/day): 15.9 ± 0.1 pg
- MCHC ([4]; PCLX-001 50 mg/kg/day): 34.1 ± 0.1 g/dL
- Hematocrit % ([4]; PCLX-001 50 mg/kg/day): 43.3 ± 0.7%
- MCV ([4]; PCLX-001 50 mg/kg/day): 46.6 ± 0.2 fL
- Platelets ([4]; PCLX-001 50 mg/kg/day): 900.7 ± 60.8 K/uL
- Aspartate Transaminase [4, 7]: 104.33 ± 27.34 U/L
- Bilirubin [4, 7]: 0.1 ± 0 mg/dL
- Creatine PhosphoKinase [4, 7]: 81.7 ± 25.1 U/L
- Creatinine [4, 7]: 0.3 ± 0.067 mg/dL
- Aspartate Transaminase [4, 8]: 132.67 ± 55.29 U/L
- Bilirubin [4, 8]: 0.1 ± 0 mg/dL
- Creatine PhosphoKinase [4, 8]: 54 ± 14.7 U/L
- Creatinine [4, 8]: 0.3 ± 0 mg/dL
- Aspartate Transaminase [4, 9]: 125.67 ± 68.18 U/L
- Bilirubin [4, 9]: 0.1 ± 0 mg/dL
- Creatine PhosphoKinase [4, 9]: 92.3 ± 29.5 U/L
- Creatinine [4, 9]: 0.3 ± 0 mg/dL
- Aspartate Transaminase [4, 10]: 279.7 ± 34.17 U/L
- Bilirubin [4, 10]: 0.1 ± 0 mg/dL
- Creatine PhosphoKinase [4, 10]: 266.67 ± 69.9 U/L
- Creatinine [4, 10]: 0.2 ± 0 mg/dL
- Noteworthy findings after last dose ([4]; Group 2, Low-dose, 10 mg/kg): None
- Noteworthy findings after last dose ([4]; Group 4, Mid-dose, 20 mg/kg): None
- mortality ([4]; any dose): does not increase mortality
- concentration required to decrease myristoylation [5]: ~0.1 µM
- cell death ([6]; BL2 cells, 0.1 and 1.0 μM, 48 hours): less than 25%
- viability of treated cells ([6]; at concentrations that are becoming cytotoxic): at least 75%
